Series [1] is described as follows: Direct intraperitoneal administration of carboplatin to mice. It is filed as in vivo, mouse. As to conditions: same amount of carboplatin as contained in the cotton-like carrier. On the procedure:
On the other hand, the mice to which PBS was administered lived three weeks or more after administration, and were therefore euthanized in the fourth week after administration.

Series [2] can be described thus: LD50 of carboplatin intraperitoneally administered to mice. It is filed as in vivo. To be noted: mouse having a body weight of 30 g.
The conditions of series [3]: intraperitoneally administered to mice; cited from earlier work.

For `N.N.O=C([O-])C1(C(=O)[O-])CCC1.[Pt+2]` [carboplatin, cis-Diamine(1,1-cyclobutanedicarboxylato)platinum (II)], in series [1] (healthy mice), the “survival after direct intraperitoneal administration” value was “all the mice died within several days”. Besides, the “findings at dissection after direct intraperitoneal administration” value in series [1] is “The intestines were necrosed and became dysfunctional”. Moreover, the LD50 per mouse in series [2] came out at 4.5 mg. Also, the “LD50 (50% lethal dose)” value in series [3] is listed as 150 mg/kg.

Source of the values: US20180021485A1, “METHOD FOR MANUFACTURING DRUG-CONTAINING BIODEGRADABLE FIBER MATERIAL BY ELECTROSPINNING” (ORTHOREBIRTH CO., LTD., priority 2015, published 2018).
